# Measurements reported in patent US11976083B2, “Inhibitors of peptidylarginine deiminases” (Gilead Sciences, Inc., priority 2020, dated 2024).
# Molecular target: T1, human PAD4 (Homo sapiens, UniProt Q9UM07)
# T1 construct: human PAD4 (NM_012387), A2-P663, was PCR amplified; His-SUMO (N, cleaved yes); made in house; host or cells: E. coli BL21(DE3)
# Assay: In vitro PAD4 BAEE biochemical assay
# Conditions: BAEE substrate 3 mM, 5 nM PAD4, 2 mM calcium chloride; geometric mean of multiple experiments
# Outline: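 Ammonia produced by BAEE deimination (3 mM substrate, 2 h, 25 °C) was read as fluorescent isoindole after o-phthalaldehyde/DTT derivatization, ex 405 nm/em 535 nm. Human PAD4 at 5 nM final, 2 mM calcium, pH 7.6 MOPS; compound preincubated 30 min. IC50s, normalized to BB-Cl-Amidine and DMSO controls, were geometric-mean averaged.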
# T1 sequence (Q9UM07 2-663): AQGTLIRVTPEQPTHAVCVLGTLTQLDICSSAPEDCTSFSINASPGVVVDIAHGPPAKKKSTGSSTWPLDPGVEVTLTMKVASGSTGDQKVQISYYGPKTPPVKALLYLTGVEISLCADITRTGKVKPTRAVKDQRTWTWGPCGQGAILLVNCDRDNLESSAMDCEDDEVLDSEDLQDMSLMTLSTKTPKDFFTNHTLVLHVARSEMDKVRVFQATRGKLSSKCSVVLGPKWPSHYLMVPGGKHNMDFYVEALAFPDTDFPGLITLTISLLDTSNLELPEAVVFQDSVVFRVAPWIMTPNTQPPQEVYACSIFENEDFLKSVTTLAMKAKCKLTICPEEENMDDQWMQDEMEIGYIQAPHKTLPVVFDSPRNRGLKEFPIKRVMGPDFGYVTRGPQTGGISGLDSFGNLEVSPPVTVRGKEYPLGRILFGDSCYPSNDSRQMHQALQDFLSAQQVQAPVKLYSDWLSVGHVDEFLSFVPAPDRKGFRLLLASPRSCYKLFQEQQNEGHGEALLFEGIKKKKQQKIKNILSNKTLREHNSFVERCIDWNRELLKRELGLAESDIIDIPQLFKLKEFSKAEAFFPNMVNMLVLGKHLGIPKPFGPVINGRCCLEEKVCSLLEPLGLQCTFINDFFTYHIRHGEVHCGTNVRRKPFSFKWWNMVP
row,SMILES,IC50 [nM]
1,"C[C@H]1NC(=O)[C@@H]2C[C@H]2CCCC(F)(F)Cn2c(-c3nc4cc(C(=O)N5C[C@H](N)[C@@H]6CC[C@H]5C6)cc(F)c4n3CC(F)F)cc3ccc1nc32 [Example 922, (2~{R},5~{R},7~{R})-14-[5-[(1~{S},4~{R},5~{R})-4-amino-2-azabicyclo[3.2.1]octane-2-carbonyl]-1-(2,2-difluoroethyl)-7-fluoro-benzimidazol-2-yl]-11,11-difluoro-2-methyl-3,13,19-triazatetracyclo [11.5.2.0^{5,7}.0^{16,20}] icosa-1(19),14,16(20),17-tetraen-4-one]",35
2,"C[C@H]1NC(=O)[C@@H]2C[C@H]2CCCCCn2c(-c3nc4cc(C(=O)N[C@@H]5CCCNC5)c(F)cc4n3C3CC3)cc3ccc1nc32 [Example 568, 1-cyclopropyl-6-fluoro-2-[(2~{R},5~{R},7~{R})-2-methyl-4-oxo-3,13,19-triazatetracyclo[11.5.2.0^ {5,7}.0^{16,20}]icosa-1(19), 14,16(20),17-tetraen-14-yl]- ~{N}-[(3~{R})-3-piperidyl]benzimidazole-5-carboxamide11,11-difluoro-2-methyl-4-oxo-3,13,19-]",33
3,"C[C@H]1NC(=O)C(C)(C)CCCCCCn2c(-c3nc4cc(C(=O)N5CCC[C@@H](N)C5)c(F)cc4n3C3CC3)cc3ccc1nc32 [Example 169, (11~{R})-17-[5-[(3~{R})-3-aminopiperidine-1-carbonyl]-1-cyclopropyl-6-fluoro-benzimidazol-2-yl]-8,8,11-trimethyl-1,10,19-triazatricyclo[10.5.2.0^{15,18}]nonadeca-12(19),13,15(18),16-tetraen-9-one]",69
4,"C[C@H]1NC(=O)[C@@H]2C[C@H]2CCCCCn2c(-c3nc4cc(C(=O)N[C@H]5CNCC[C@@H]5F)c(F)cc4n3CC3(C#N)CC3)cc3ccc1nc32 [Example 406, 1-[(1-cyanocyclopropyl)methyl]-6-fluoro-~{N}-[(3~{S},4~{S})-4-fluoro-3-piperidyl]-2-[(2~{R},5~{R},7~{R})-2-methyl-4-oxo-3,13,19-triazatetracyclo[11.5.2.0^{5,7}.0^{16,20}]icosa-1(19),14,16(20),17-tetraen-14-yl]benzimidazole-5-carboxamide]",22
5,"C[C@H]1NC(=O)c2ccc(Cl)nc2CCCCCn2c(-c3nc4cc(C(=O)N5C[C@H](N)[C@@H]6CC[C@H]5C6)cc(F)c4n3[C@@H]3C[C@H]3F)cc3ccc1nc32 [Example 473, (2~{R})-17-[5-[(1~{S},4~{R},5~{R})-4-amino-2-azabicyclo[3.2.1]octane-2-carbonyl]-7-fluoro-1-[(1~{R},2~{R})-2-fluorocyclopropyl]benzimidazol-2-yl]-8-chloro-2-methyl-3,9,16,22-tetrazatetracyclo[14.5.2.0^{5,10}.0^{19,23}] tricosa-1(22),5(10),6,8,17,19(23),20-heptaen-4-one]",44
6,"C[C@H]1NC(=O)[C@@H]2C[C@H]2CCCCCn2c(-c3nc4cc(C(=O)N[C@H]5CNCC[C@@H]5F)c(F)cc4n3[C@@H]3C[C@H]3C(F)F)cc3ccc1nc32 [Example 415, 1-[(1~{R},2~{R})-2-(difluoromethyl)cyclopropyl]-6-fluoro-~ {N}-[(3~{S},4~{S})-4-fluoro-3-piperidyl]-2-[(2~{R},5~{R},7~{R})-2-methyl-4-oxo-3,13,19-triazatetracyclo[11.5.2.0^{5,7}.0^{16,20}]icosa-1(19),14,16(20),17-tetraen-14-yl]benzimidazole-5-carboxamide]",52
7,"COc1cc(C(=O)N2[C@H]3CC[C@@H]2[C@H](N)C3)cc2nc(-c3cc4ccc5nc4n3C[C@@H]3CC[C@@H]3COCCC(=O)N[C@@H]5C)c(C)n12 [Example 9, (3~{R},6~{S},13~{R})-19-[7-[(1~{R},2~{R},4~{S})-2-amino-7-azabicyclo[2.2.1]heptane-7-carbonyl]-5-methoxy-3-methyl-imidazo[1,2-a]pyridin-2-yl]-13-methyl-8-oxa-1,12,21-triazatetracyclo[12.5.2.0^{3,6}.0^{17,20}] henicosa-14(21),15,17(20),18-tetraen-11-one]",53
8,"C[C@H]1NC(=O)[C@@]2(C)C[C@@H]2CCCC(F)(F)Cn2c(-c3nc4cc(C(=O)N[C@H]5CNCC[C@@H]5F)c(F)cc4n3C)cc3ccc1nc32 [Example 549, 2-[(2~{R},5~{S},7~ {S})-11,11-difluoro-2,5-dimethyl-4-oxo-3,13,19-triazatetracyclo [11.5.2.0^{5,7).0^ {16,20}]icosa-1(19), 14,16(20),17-tetraen-14-yl]-6-fluoro-~{N}-[(3~ {S},4~{S})-4-fluoro-3-piperidyl]-1-methyl-benzimidazole-5-carboxamide]",129
9,"COc1cc(C(=O)N2C[C@H](N)[C@@H]3CC[C@H]2C3)cc2nc(-c3cc4ccc5nc4n3CCCCCc3nc(Cl)ccc3C(=O)N[C@@H]5C)n(C3CC3)c12 [Example 809, (2˜{R})-17-[5-[(1˜{S},4˜{R},5˜{R})-4-amino-2-azabicyclo[3.2.1]octane-2-carbonyl]-1-cyclopropyl-7-methoxy-benzimidazol-2-yl]-8-chloro-2-methyl-3,9,16,22-tetrazatetracyclo[14.5.2.0^{5,10}.0^{19,23}]tricosa-1(21),5(10),6,8,17,19,22-heptaen-4-one]",39
10,"C[C@H]1NC(=O)c2cccnc2CCCCCn2c(-c3nc4cc(C(=O)N[C@H]5CNCC[C@@H]5F)c(F)cc4n3C)cc3ccc1nc32 [Example 401, 6-fluoro-~{N}-[(3~{S},4~{S})-4-fluoro-3-piperidyl]-1-methyl-2-[(2~{R})-2-methyl-4-oxo-3,9,16,22-tetrazatetracyclo[14.5.2.0^{5,10).0^{19,23}]tricosa-1(22),5(10),6,8,17,19(23),20-heptaen-17-yl]benzimidazole-5-carboxamide]",90
11,"C[C@H]1NC(=O)c2nc3ccccc3nc2CCCCCn2c(-c3nc4cc(C(=O)N5C[C@H](N)[C@@H]6CC[C@H]5C6)cc(F)c4n3C3CC3)cc3ccc1nc32 [Example 839, (2~{R})-21-[5-[(1~ {S},4~{R},5~{R})-4-amino-2-azabicyclo[3.2.1]octane-2-carbonyl]-1-cyclopropyl-7-fluoro-benzimidazol-2-yl]-2-methyl-3,6,13,20,26-pentazapentacyclo[18.5.2.0^ {5,14}.0^{7,12}.0^ {23,27}]heptacosa-1(26),5(14), 6,8,10,12,21,23(27),24-nonaen-4-one]",13

# Second part, the compound after the results:
row,IC50 [nM],SMILES
1,120,"COc1cc(C(=O)N2CC[C@@H](OC)[C@@H](N)C2)cc2nc(-c3cc4ccc5nc4n3C[C@H]3C[C@H]3CCCC(C)(C)C(=O)N[C@@H]5C)n(C)c12 [Example 366, (3~{S),5~{R},12~{R})-18-[5-[(3~{S},4~{R})-3-amino-4-methoxy-piperidine-1-carbonyl]-7-methoxy-1-methyl-benzimidazol-2-yl]-9,9,12-trimethyl-1,11,20-triazatetracyclo[11.5.2.0^{3,5}.0^{16,19}] icosa-13(20),14,16(19),17-tetraen-10-one]"
2,453,"COc1cc(C(=O)N2CC[C@H]3CCCN[C@H]3C2)cc2nc(-c3cc4ccc5nc4n3CCCCCCC3(CC3)C(=O)N[C@@H]5C)n(C)c12 [Example 260, (11~{R})-17-[5-[(4~{a}~{R},8~{a}~{R})-2,3,4,4~{a},5,6,8,8~{a}-octahydro-1~{H}-1,7-naphthyridine-7-carbonyl]-7-methoxy-1-methyl-benzimidazol-2-yl]-11-methyl-spiro[1,10,19-triazatricyclo[10.5.2.0^{15,18}]nonadeca-12(19),13,15(18),16-tetraene-8,1′-cyclopropane]-9-one]"
3,31,"COc1cc(C(=O)N2[C@H]3CC[C@@H]2[C@H](N)C3)cc2nc(-c3cc4ccc5nc4n3C[C@H]3C[C@H]3CCCCC(=O)N[C@@H]5C)n(C)c12 [Example 144, (3~{S),5~{R},12~{R})-18-[5-[(1~{R},2~{R},4~{S})-2-amino-7-azabicyclo[2.2.1]heptane-7-carbonyl]-7-methoxy-1-methyl-benzimidazol-2-yl]-12-methyl-1,11,20-triazatetracyclo[11.5.2.0^{3,5}.0^{16,19}] icosa-13(20),14,16(19),17-tetraen-10-one]"
4,116,"COc1cc(C(=O)N2CCC[C@@H](N)C2)cc2nc(-c3cc4ccc5nc4n3CCCCC[C@@H](OC)C(C)(C)C(=O)N[C@@H]5C)n(C)c12 [Example 153, (7~{R},11~{R})-17-[5-[(3~{R})-3-aminopiperidine-1-carbonyl]-7-methoxy-1-methyl-benzimidazol-2-yl]-7-methoxy-8,8,11-trimethyl-1,10,19-triazatricyclo[10.5.2.0^{15,18}]nonadeca-12(19),13,15(18),16-tetraen-9-one]"
5,13,"COCCn1c(-c2cc3ccc4nc3n2CCCCC[C@@H]2C[C@H]2C(=O)N[C@@H]4C)nc2cc(C(=O)N3C[C@H](N)[C@@H]4CC[C@H]3C4)cc(OC)c21 [Example 817, (2~{R},5~{R},7~{R})-14-[5-[(1~{S},4~{R},5~{R})-4-amino-2-[3.2.1]octane-2-carbonyl]-7-methoxy-1-(2-methoxyethyl)benzimidazol-2-yl]-2-methyl-3,13,19-triazatetracyclo[11.5.2.0^ {5,7}.0^{16,20}]icosa-1(18),14,16,19-tetraen-4-one]"
6,154,"COc1cc(C(=O)N2[C@H]3CC[C@@H]2[C@H](N)C3)cc2nc(-c3cc4ccc5nc4n3CCCCCCNC(=O)CC5C)n(C)c12 (some centres unmarked) [Example 227, 17-[5-[(1˜{R},2˜{R},4˜{S})-2-amino-7-azabicyclo[2.2.1]heptane-7-carbonyl]-7-methoxy-1-methyl-benzimidazol-2-yl]-11-methyl-1,8,19-triazatricyclo[10.5.2.0^{15,18}]nonadeca-12(19),13,15(18),16-tetraen-9-one]"
